Columns and labels:
[1] = drug stability at elevated temperature; assay type: physicochemical; details: 120° C., may be reached during manufacturing of the dosage form
Protocol: Additionally, drug stability was evaluated for an elevated temperature of 120° C. which may be reached during the manufacturing of the dosage form.

[2] = drug stability in simulated gastric fluid; assay type: physicochemical; details: SGF pH 1.2, 37° C., 24 hour duration; HPLC-UV
Protocol: Given that the tested residence device is designed to reside in the stomach for an extended period, the drug stability was analyzed in simulated gastric fluid (0.2% w/v sodium chloride, and 0.7% w/v hydrochloric acid, adjusted to pH-1.2; referred to as SGF). Moxifloxacin was dissolved in SGF and placed at 37° C. At various times, part of the solution was aliquoted and stored at about −20° C. until further analysis. For carbamazepine, the drug was first dissolved in methanol and then diluted in SGF (at least 100-fold). At various times, part of the solution was collected and stored at −20° C. On completion of the study, drug concentration in the various aliquots was measured using high performance liquid chromatography-ultraviolet (HPLC-UV) analysis (High Performance Liquid Chromatography).

[3] = in vitro drug release from drug-polymer matrices in simulated gastric fluid; assay type: physicochemical; details: addition of water soluble polymers such as PEG 3350 and Kolliphor P 407 to the polymer matrix; SGF with 5% (w/v) Tween 20
Protocol: To perform the release study, drug-polymer matrices ( 1 cm in length) were incubated with 50 ml of the respective release medium in a 37° C. incubator shaker at 50 rpm. At various times, 1 ml of the release medium was collected and stored at -20° C. until further analysis. The remaining medium was discarded, and the arms were incubated with fresh medium. For measuring drug concentrations in the release medium, all specimens (beam-like arms) were thawed, centrifuged at 1500 g for 10 min, and analyzed using high-performance liquid chromatography (HPLC). Depending on the drug used, the links had excipients and elasticizers added to enhance the drug release and mechanical properties, respectively. For both moxifloxacin ([…], Inc) and carbamazepine (Ark Pharm, Inc), poly(ethylene glycol) (PEG) (molecular weight-3350 Da, Spectrum Corp.), Kolliphor® P 407 (BASF), and EUDRAGIT® E PO (Evonik) were used as excipients. For carbamazepine, CarbothaneTM TPU P[…] was used as an elasticizer. For X-ray visualization, 15% weight ratio of BaSO4 was added. Various polymeric formulations were investigated for controlled release of the drugs. The in vitro drug release was also investigated by changing drug loading and the composition of excipients, as well as application of polymeric coating (using a solution of 5.4% PCL (w/v) and 0.6% EUDRAGIT® E PO (w/v) in acetone). […]

[4] = solubility in simulated gastric fluid; assay type: physicochemical
[5] = in vivo prolonged drug delivery, blood concentration versus time; set-up: species or system Yorkshire pigs; details: pigs
Protocol: To evaluate the ability of residence devices loaded with the selected carbamazepine formulation to achieve gastric retention, the above described residence device was administered to a large animal model (three 35 to 50 kg Yorkshire pigs for each drug). Following overnight fasting and sedation of the animals, an overtube (US Endoscopy), with endoscopic guidance, was placed into the stomach to facilitate direct gastric delivery of the residence device. A residence devices folded into a cylindrical shape of length 20 cm and diameter of 12 mm (see the folded configuration in FIG. 1A) was administered via the overtube into the stomach of each pig, and the overtube was then removed. […] Serial radiographs were performed immediately afterwards and every 48-72 hours to monitor the integrity and transit of the devices as well as any radiographic evidence of bowel obstruction. In addition, animals were monitored clinically at least twice a day for any evidence of morbidity, including lethargy, inappetence, decreased fecal output, abdominal distension and vomiting. […] Endoscopic evaluation of the stomach over the course of the study was performed to further explore the stomach and ensure the absence of any ulceration or injury. Blood samples were taken at the following time points, 0 min (before administration of the dosage form), 5 min, 15 min, 30 min, 2 hours, 6 hours, daily for a minimum of 5 days, and then three times for the second week from peripheral veins under sedation.
One hundred microliters of each blood sample was spiked with 200 μl of 250 ng/mL internal standard (imipramine for carbamazepine) with acetonitrile added to elicit protein precipitation. Samples were vortexed, sonicated, and centrifuged prior to being pipetted into a well plate containing 200 μl of nanopure water. Finally, the samples were injected into an Ultra Performance Liquid Chromatography tandem mass spectrometry (UPLC-MS/MS) for analysis.

Row | drug degradation at elevated temperature [1] | stability in SGF [2] | increase in release of carbamazepine [3] | solubility in simulated gastric fluid (SGF) [4] | area under the curve as compared to immediate release formulations ([5]; residence device) | maximum concentration as compared to immediate release formulations ([5]; residence device) | duration of drug delivery after a single administration ([5]; residence device, direct gastric delivery) | Compound | carbamazepine concentration versus time profile ([5]; 14 day residence time, UPLC-MS/MS)
1 | no appreciable drug degradation | stable | – | – | – | – | – | COc1c(N2C[C@@H]3CCCN[C@@H]3C2)c(F)cc2c(=O)c(C(=O)O)cn(C3CC3)c12 [moxifloxacin] | –
2 | no appreciable drug degradation | stable | greater than 3 fold | limited solubility | enhanced area under the curve | lower maximum concentration | up to 14 days | NC(=O)N1c2ccccc2C=Cc2ccccc21 [carbamazepine] | initial spike in concentration was observed in the first day followed by relatively uniform concentrations
